Experimental data taken from ChEMBL document CHEMBL1201862, “PubChem BioAssay data set” (2004).
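Compound exposure: 48 hours, 5 concentrations, 96-well plates. GI50: concentration for 50% inhibition of growth.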 The source made the active and inactive calls. Cut-off read from the data, not from the text of the source: active = GI50 up to about 1.1 µM and inactive = higher.

Columns and labels:
Experiment in all cases: growth of human tumour cells (NCI), 48 h
K562 = tested on: K562
UACC-257 = tested on: UACC-257
SK-OV-3 = tested on: SK-OV-3
SR = tested on: SR
HCT-116 = tested on: HCT-116
SF-539 = tested on: SF-539
OVCAR-4 = tested on: OVCAR-4
SK-MEL-28 = tested on: SK-MEL-28
HOP-92 = tested on: HOP-92
TK-10 = tested on: TK-10
ACHN = tested on: ACHN
SNB-75 = tested on: SNB-75
Malme-3M = tested on: Malme-3M
SF-268 = tested on: SF-268
SK-MEL-2 = tested on: SK-MEL-2
NCI-H522 = tested on: NCI-H522
HCC 2998 = tested on: HCC 2998
OVCAR-3 = tested on: OVCAR-3

Measured: GI50

COc1ccc([C@H]2CC(=O)NCCCCN2)cc1
inactive: K562 > 100 µM | UACC-257 > 100 µM | SK-OV-3 > 100 µM | SR > 100 µM | HCT-116 > 100 µM | SF-539 > 100 µM | OVCAR-4 > 100 µM | SK-MEL-28 > 100 µM | HOP-92 57.1 µM | TK-10 > 100 µM | ACHN > 100 µM | SNB-75 55.2 µM | Malme-3M > 100 µM | SF-268 > 100 µM | SK-MEL-2 > 100 µM | NCI-H522 > 100 µM

Cc1csc(CCC(N)C(=O)O)n1 (stereo not given)
inactive: K562 > 100 µM | UACC-257 > 100 µM | SK-OV-3 > 100 µM | HCC 2998 > 100 µM | OVCAR-3 > 100 µM | HCT-116 > 100 µM | SF-539 > 100 µM | SK-MEL-28 > 100 µM | HOP-92 > 100 µM | TK-10 > 100 µM | ACHN > 100 µM | SNB-75 > 100 µM | Malme-3M > 100 µM | NCI-H522 > 100 µM

O=C(N/C(=C\c1ccc(Oc2ccc(Cl)c(Cl)c2)cc1)c1nc2ccccc2[nH]1)c1ccccc1
inactive: K562 8.91 µM | SK-OV-3 26.2 µM | HCC 2998 16.4 µM | OVCAR-3 17.3 µM | SR 25.6 µM | SF-539 18 µM | OVCAR-4 16.6 µM | SK-MEL-28 18.4 µM | HOP-92 10.4 µM | TK-10 26.1 µM | ACHN 19.7 µM | Malme-3M 20.9 µM | SF-268 18.1 µM | SK-MEL-2 19.2 µM | NCI-H522 15.9 µM

N/N=C(\Cc1ccccc1)NN=C(N)N
inactive: K562 > 100 µM | UACC-257 > 100 µM | SK-OV-3 > 100 µM | HCC 2998 > 100 µM | SR > 100 µM | HCT-116 > 100 µM | SF-539 > 100 µM | OVCAR-4 > 100 µM | SK-MEL-28 > 100 µM | HOP-92 > 100 µM | TK-10 > 100 µM | ACHN 53.7 µM | SNB-75 > 100 µM | Malme-3M > 100 µM | SF-268 > 100 µM | SK-MEL-2 > 100 µM | NCI-H522 32.1 µM

CN(C(=O)C12C3C4C1C1C2C3C41C(N)=O)C(C)(C)C (stereo not given)
inactive: K562 > 100 µM | SK-OV-3 > 100 µM | HCC 2998 > 100 µM | OVCAR-3 > 100 µM | SR > 100 µM | HCT-116 > 100 µM | SF-539 > 100 µM | OVCAR-4 > 100 µM | SK-MEL-28 > 100 µM | HOP-92 > 100 µM | TK-10 > 100 µM | ACHN > 100 µM | SNB-75 > 100 µM | Malme-3M > 100 µM | SF-268 > 100 µM | NCI-H522 > 100 µM

COC(=O)C(C(=O)C(=O)Nc1nc2ccc([N+](=O)[O-])cc2s1)c1nc2ccc(Cl)cc2nc1O (stereo not given)
inactive: K562 > 100 µM | UACC-257 > 100 µM | SK-OV-3 35.2 µM | HCC 2998 > 100 µM | OVCAR-3 > 100 µM | SR > 100 µM | HCT-116 > 100 µM | SF-539 > 100 µM | OVCAR-4 > 100 µM | SK-MEL-28 > 100 µM | TK-10 > 100 µM | ACHN > 100 µM | SNB-75 52 µM | Malme-3M > 100 µM | SF-268 > 100 µM | SK-MEL-2 > 100 µM | NCI-H522 > 100 µM

COc1nc(NC2OC(COC(C)=O)C(OC(C)=O)C(OC(C)=O)C2OC(C)=O)c(-c2csc(N)n2)c(=O)n1C (stereo not given)
inactive: K562 60.1 µM | UACC-257 58.3 µM | SK-OV-3 > 100 µM | OVCAR-3 93.3 µM | SR > 100 µM | HCT-116 43.8 µM | SF-539 54.2 µM | OVCAR-4 19.4 µM | SK-MEL-28 55.7 µM | HOP-92 28.4 µM | TK-10 > 100 µM | ACHN 38.4 µM | SNB-75 18.4 µM | Malme-3M 26.8 µM | SF-268 25.9 µM | SK-MEL-2 21.5 µM | NCI-H522 46.5 µM

Cc1ccc(/N=N/c2ccc(N(CCC#N)CCC#N)cc2C)c(Br)c1
inactive: K562 3.13 µM | UACC-257 26 µM | SK-OV-3 10.3 µM | HCC 2998 5.28 µM | OVCAR-3 32.6 µM | SF-539 14.4 µM | OVCAR-4 20.4 µM | SK-MEL-28 51.3 µM | TK-10 16.7 µM | ACHN 15 µM | SNB-75 11.3 µM | Malme-3M 44.2 µM | SF-268 21.1 µM | SK-MEL-2 16.9 µM | NCI-H522 18.5 µM

CCCCCCCCCCCCn1[nH]c(C)c(C(=S)SCCCCCCCC)c1=O
inactive: K562 40.3 µM | UACC-257 41.8 µM | SK-OV-3 > 93.1 µM | HCC 2998 > 96.6 µM | OVCAR-3 34.8 µM | HCT-116 29.6 µM | SF-539 73.8 µM | OVCAR-4 95.5 µM | SK-MEL-28 > 100 µM | HOP-92 > 100 µM | TK-10 64.6 µM | ACHN 37.6 µM | SNB-75 > 100 µM | Malme-3M > 100 µM | SF-268 > 72.6 µM | SK-MEL-2 > 100 µM | NCI-H522 31.9 µM

Clc1ccc(/N=C/c2cc3cc(Br)ccc3nc2Cl)cc1
inactive: K562 4.34 µM | UACC-257 34.1 µM | HCC 2998 32.3 µM | SR 10.1 µM | HCT-116 12 µM | SF-539 21.4 µM | OVCAR-4 5.12 µM | SK-MEL-28 46.5 µM | HOP-92 > 50 µM | SNB-75 > 50 µM | Malme-3M > 50 µM | SF-268 17 µM | SK-MEL-2 10.8 µM | NCI-H522 15.1 µM

Cc1ccc(NC(=O)CCC(CC(=O)C(C)(C)C)=NNC(=O)C(=O)NN)cc1C
inactive: K562 > 100 µM | UACC-257 > 100 µM | SK-OV-3 > 100 µM | HCC 2998 > 100 µM | OVCAR-3 > 100 µM | SF-539 > 100 µM | OVCAR-4 > 100 µM | SK-MEL-28 > 100 µM | TK-10 > 100 µM | ACHN > 100 µM | SNB-75 > 100 µM | Malme-3M > 100 µM | SF-268 > 100 µM | SK-MEL-2 > 100 µM | NCI-H522 > 100 µM

COc1cc2c(cc1OC)C(=O)N1CCCC1C(=O)S2 (stereo not given)
inactive: K562 > 100 µM | UACC-257 > 100 µM | SK-OV-3 > 100 µM | HCC 2998 > 100 µM | OVCAR-3 > 100 µM | SR > 100 µM | HCT-116 > 100 µM | SF-539 > 100 µM | SK-MEL-28 > 100 µM | HOP-92 > 100 µM | TK-10 > 100 µM | ACHN > 100 µM | Malme-3M > 100 µM | SF-268 > 100 µM | SK-MEL-2 > 100 µM | NCI-H522 > 100 µM

NC(=O)N/N=C(\CC1OC(=O)c2ccccc21)c1ccco1 (stereo not given)
inactive: K562 > 100 µM | UACC-257 > 100 µM | SK-OV-3 > 100 µM | HCC 2998 > 100 µM | OVCAR-3 > 100 µM | HCT-116 > 100 µM | SF-539 > 100 µM | OVCAR-4 > 100 µM | SK-MEL-28 > 100 µM | HOP-92 > 100 µM | TK-10 > 100 µM | ACHN > 100 µM | SNB-75 > 100 µM | Malme-3M > 100 µM | SF-268 > 100 µM | SK-MEL-2 > 100 µM | NCI-H522 > 100 µM

COC(=O)C1=NC(=S)NC(c2ccccc2)C1c1nc2ccccc2o1 (stereo not given)
inactive: K562 > 50 µM | UACC-257 > 50 µM | SK-OV-3 > 50 µM | HCC 2998 > 50 µM | OVCAR-3 > 50 µM | SR > 50 µM | HCT-116 > 50 µM | SF-539 > 50 µM | OVCAR-4 > 50 µM | HOP-92 > 50 µM | TK-10 > 50 µM | ACHN > 50 µM | Malme-3M > 50 µM | SF-268 > 50 µM | SK-MEL-2 > 50 µM | NCI-H522 > 50 µM

O=C1CCC(=O)c2c1c(O)c1ccncc1c2O
inactive: K562 18.8 µM | UACC-257 7.5 µM | SK-OV-3 36.5 µM | HCC 2998 15.4 µM | OVCAR-3 2.88 µM | SR 13 µM | HCT-116 14.7 µM | SF-539 15.6 µM | OVCAR-4 12.9 µM | SK-MEL-28 20.5 µM | HOP-92 22.8 µM | TK-10 18.4 µM | ACHN 15.3 µM | SNB-75 18.7 µM | Malme-3M 16 µM | SK-MEL-2 13.6 µM | NCI-H522 12 µM

O=C1OC(=O)c2c1c(-c1ccccc1)cn2-c1ccc(Cl)cc1
inactive: K562 2.22 µM | UACC-257 > 100 µM | SK-OV-3 > 100 µM | HCC 2998 > 100 µM | OVCAR-3 54.7 µM | SR > 100 µM | HCT-116 > 100 µM | SF-539 > 100 µM | SK-MEL-28 > 100 µM | HOP-92 > 100 µM | TK-10 > 100 µM | ACHN 37.2 µM | SNB-75 > 100 µM | Malme-3M > 100 µM | SF-268 > 100 µM | SK-MEL-2 > 100 µM | NCI-H522 67.3 µM

COc1ccc(/C=C/C(=O)c2sc(N)nc2C)cc1
inactive: K562 > 100 µM | UACC-257 > 100 µM | SK-OV-3 > 100 µM | HCC 2998 > 100 µM | OVCAR-3 41 µM | SF-539 > 100 µM | SK-MEL-28 > 100 µM | HOP-92 > 100 µM | TK-10 > 100 µM | SNB-75 > 100 µM | Malme-3M > 100 µM | SF-268 > 100 µM | SK-MEL-2 > 100 µM | NCI-H522 > 100 µM
